Assay results taken from ChEMBL document CHEMBL4834485, “Designed, synthesized and biological evaluation of proteolysis targeting chimeras (PROTACs) as AR degraders for prostate cancer treatment” (Bioorg Med Chem, 2021).
Calls of active or inactive are those of the source. The rule behind the calls is not given here.

Tests used:
[1] = biological target: T1, Protein cereblon/Androgen receptor (Homo sapiens) (UniProt P10275+Q96SW2); assay: PROTAC activity at CRBN/AR in human LNCaP cells assessed as induction of AR degradation by measuring downregulation of AR protein expression measured after 24 hrs by western blot assay; type: cell-based; settings: dose 10-30 µM
T1 sequence (P10275 whole entry, looked up): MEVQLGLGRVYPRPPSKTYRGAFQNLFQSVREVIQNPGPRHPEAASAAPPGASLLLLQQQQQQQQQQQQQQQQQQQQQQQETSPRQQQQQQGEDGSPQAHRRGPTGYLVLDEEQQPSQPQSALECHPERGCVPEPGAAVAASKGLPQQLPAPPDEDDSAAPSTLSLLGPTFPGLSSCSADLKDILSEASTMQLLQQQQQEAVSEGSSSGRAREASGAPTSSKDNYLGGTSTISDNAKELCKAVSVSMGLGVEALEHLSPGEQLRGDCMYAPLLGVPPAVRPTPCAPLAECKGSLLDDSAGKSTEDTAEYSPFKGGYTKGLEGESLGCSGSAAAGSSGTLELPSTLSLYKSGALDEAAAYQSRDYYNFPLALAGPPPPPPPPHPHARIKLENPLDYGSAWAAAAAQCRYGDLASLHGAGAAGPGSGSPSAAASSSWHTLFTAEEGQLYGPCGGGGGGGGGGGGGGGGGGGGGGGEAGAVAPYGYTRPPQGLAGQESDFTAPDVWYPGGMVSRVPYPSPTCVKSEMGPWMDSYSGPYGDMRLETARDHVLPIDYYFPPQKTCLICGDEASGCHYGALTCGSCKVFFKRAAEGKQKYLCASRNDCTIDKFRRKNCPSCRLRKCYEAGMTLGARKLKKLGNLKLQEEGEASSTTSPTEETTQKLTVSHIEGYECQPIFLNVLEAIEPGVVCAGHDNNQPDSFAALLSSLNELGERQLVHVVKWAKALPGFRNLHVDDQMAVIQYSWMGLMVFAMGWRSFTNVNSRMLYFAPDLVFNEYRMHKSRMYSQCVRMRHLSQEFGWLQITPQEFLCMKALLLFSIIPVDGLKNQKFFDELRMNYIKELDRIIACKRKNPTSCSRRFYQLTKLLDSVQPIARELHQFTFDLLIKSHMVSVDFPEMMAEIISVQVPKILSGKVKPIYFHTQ
T1 sequence (Q96SW2 whole entry, looked up): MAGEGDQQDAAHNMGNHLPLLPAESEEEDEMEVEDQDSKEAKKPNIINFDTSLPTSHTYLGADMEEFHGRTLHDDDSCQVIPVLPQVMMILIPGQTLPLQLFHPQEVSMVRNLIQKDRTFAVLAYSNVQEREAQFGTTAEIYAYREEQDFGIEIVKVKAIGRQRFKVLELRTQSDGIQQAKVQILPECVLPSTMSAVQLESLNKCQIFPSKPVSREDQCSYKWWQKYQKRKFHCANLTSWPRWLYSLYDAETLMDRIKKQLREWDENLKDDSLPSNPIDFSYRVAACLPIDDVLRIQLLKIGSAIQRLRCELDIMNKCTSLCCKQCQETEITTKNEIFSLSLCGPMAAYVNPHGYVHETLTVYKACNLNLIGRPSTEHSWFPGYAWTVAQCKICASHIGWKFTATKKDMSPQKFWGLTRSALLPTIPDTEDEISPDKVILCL

[2] = biological target: T1, Protein cereblon/Androgen receptor (Homo sapiens); assay: PROTAC activity at CRBN/AR in human LNCaP cells assessed as induction of AR degradation by measuring downregulation of AR protein expression at 30 uM measured after 24 hrs by western blot assay; type: cell-based
[3] = Drug uptake in AR-negative human PC-3 cells assessed as increase in fluorescence intensity at 10 uM incubated for 24 hrs by DAPI staining based confocal laser scanning microscopy; type: ADME, cell-based; settings: pc-3, 24 h
[4] = Drug uptake in AR-positive human LNCaP cells assessed as increase in fluorescence intensity at 10 uM incubated for 24 hrs by DAPI staining based confocal laser scanning microscopy; type: ADME

| Activity [1] | Activity [2] | Drug uptake [3] | Drug uptake [4] | Structure (SMILES) |
| --- | --- | --- | --- | --- |
| Dose-Dependent Effect | Active |  |  | CC1(C)C(=O)N(c2ccc(C#N)c(C(F)(F)F)c2)C(=S)N1CCCn1cc(COCCOCCOc2cccc3c2C(=O)N(C2CCC(=O)NC2=O)C3=O)nn1 (centres undefined) |
|  |  | Active | Active | Nc1cccc2c1C(=O)N(C1CCC(=O)NC1=O)C2=O (centres undefined) [POMALIDOMIDE] |
